Source: patent US20240254119A1 (THIRD HARMONIC BIO, INC., priority 2022, published 2024)

What was measured:
[1] = Kinetic solubility assay; type: physicochemical; details: kinetic solubility, 50 mM PB (pH 7.4), shaken 24 hours at RT
Summary of the method: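 Concentration in the filtrate was determined by UPLC-UV or HPLC-UV with a standard curve. Before that, compound (10 mM DMSO stock) in 50 mM PB at pH 7.4 was agitated 24 h at room temperature, then PTFE-filtered with centrifugation.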

[2] = biological target: T1, BCRP (BCRP-MDCKII monolayer) (Homo sapiens, UniProt Q9UNQ0); experiment: MDCKII-BCRP bidirectional transport assay; type: in vitro ADME; details: for MDCK-BCRP: Papp A-B: apical to basolateral
T1 construct: host or cells: MDCKII (canine kidney) cells
T1 sequence (Q9UNQ0 1-655): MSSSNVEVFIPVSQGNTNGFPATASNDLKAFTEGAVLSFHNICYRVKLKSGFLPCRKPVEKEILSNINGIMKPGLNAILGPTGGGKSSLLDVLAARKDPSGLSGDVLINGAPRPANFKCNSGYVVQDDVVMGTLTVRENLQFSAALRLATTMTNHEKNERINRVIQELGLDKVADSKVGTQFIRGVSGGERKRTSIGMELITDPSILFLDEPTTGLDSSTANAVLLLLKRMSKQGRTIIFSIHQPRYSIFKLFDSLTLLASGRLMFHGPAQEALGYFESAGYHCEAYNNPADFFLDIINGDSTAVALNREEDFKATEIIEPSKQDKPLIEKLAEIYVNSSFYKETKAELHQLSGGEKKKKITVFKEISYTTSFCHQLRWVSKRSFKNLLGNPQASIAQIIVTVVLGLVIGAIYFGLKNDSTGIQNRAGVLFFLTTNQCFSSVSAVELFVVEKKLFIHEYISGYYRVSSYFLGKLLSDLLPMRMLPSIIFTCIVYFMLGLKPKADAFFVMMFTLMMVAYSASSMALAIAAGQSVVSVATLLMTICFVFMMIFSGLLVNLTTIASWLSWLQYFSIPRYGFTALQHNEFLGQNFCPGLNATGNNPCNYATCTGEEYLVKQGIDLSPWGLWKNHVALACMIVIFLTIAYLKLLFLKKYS
Summary of the method: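 Efflux ratios were derived from Papp values, alongside recovery, with compounds quantified by LC-MS/MS. Both directions were tested in duplicate across BCRP-MDCKII monolayers used on days 12–15. Incubation ran 120 min at 37° C, 5% CO2, after a 15 min preincubation in assay buffer.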

[3] = biological target: T2, CSF-1R (Homo sapiens, UniProt P07333); experiment: Caliper biochemical assay, CSF-1R; details: Table 6
T2 construct: purchased Invitrogen PV3249 (lot 662393N)
Summary of the method: (§1)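 Mobility-shift readout: after EDTA quench, fluorescent peptide and product are resolved electrophoretically on a LabChip and measured by fluorescence. Reactions contain enzyme, carboxyfluorescein peptide, ATP, Mn^2+ and compound, run 3 h at 25° C; 100% inhibition control lacks enzyme.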

[4] = biological target: T3, wtKIT (Homo sapiens, UniProt P10721); experiment: Caliper biochemical assay, wtKIT; details: Table 6, read-out: KIT Biochemical IC50 avg
T3 construct: 1888289AM in the reaction mixtures
Summary of the method: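 Mobility-shift read-out: after EDTA stop, fluorescent peptide substrate and product resolved electrophoretically on LabChip 3000. Reaction ran 3 h at 25° C with 400 μM ATP, Mn^2+ cofactor, 5.0 nM wtKIT, 1 μM FAM-peptide, pH 7.5 HEPES buffer; no-enzyme wells defined full inhibition.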

[5] = biological target: T4, PDGFRα (Homo sapiens, UniProt P16234); experiment: Caliper biochemical assay, PDGFRα; details: Table 6
T4 construct: purchased Millipore 14-467 (lot 26321_ACTI)
Summary of the method: as §1

T3 sequence (P10721 26-976): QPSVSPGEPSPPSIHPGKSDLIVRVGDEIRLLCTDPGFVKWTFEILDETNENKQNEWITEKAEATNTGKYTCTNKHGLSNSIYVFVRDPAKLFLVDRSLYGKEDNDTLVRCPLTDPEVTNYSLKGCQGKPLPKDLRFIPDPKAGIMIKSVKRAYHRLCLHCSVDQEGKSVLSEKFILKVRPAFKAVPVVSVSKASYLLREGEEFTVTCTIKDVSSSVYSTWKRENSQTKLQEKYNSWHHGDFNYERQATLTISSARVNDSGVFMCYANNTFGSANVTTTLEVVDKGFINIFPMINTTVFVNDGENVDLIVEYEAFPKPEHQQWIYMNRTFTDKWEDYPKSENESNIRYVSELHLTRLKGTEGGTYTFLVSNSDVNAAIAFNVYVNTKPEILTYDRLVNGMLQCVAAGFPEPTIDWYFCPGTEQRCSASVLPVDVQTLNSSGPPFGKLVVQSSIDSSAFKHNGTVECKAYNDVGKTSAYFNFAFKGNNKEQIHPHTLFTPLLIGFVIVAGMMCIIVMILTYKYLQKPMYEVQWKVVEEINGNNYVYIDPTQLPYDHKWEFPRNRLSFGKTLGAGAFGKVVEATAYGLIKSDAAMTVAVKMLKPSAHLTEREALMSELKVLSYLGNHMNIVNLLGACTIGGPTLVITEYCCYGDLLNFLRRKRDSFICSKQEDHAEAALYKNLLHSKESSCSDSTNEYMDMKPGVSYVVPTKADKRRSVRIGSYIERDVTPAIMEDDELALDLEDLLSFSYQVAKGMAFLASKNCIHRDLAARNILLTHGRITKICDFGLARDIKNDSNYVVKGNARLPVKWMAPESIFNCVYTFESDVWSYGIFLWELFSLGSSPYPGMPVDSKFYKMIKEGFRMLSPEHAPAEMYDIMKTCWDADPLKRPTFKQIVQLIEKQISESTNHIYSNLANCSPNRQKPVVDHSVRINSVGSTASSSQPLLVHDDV
T2 sequence (P07333 20-972): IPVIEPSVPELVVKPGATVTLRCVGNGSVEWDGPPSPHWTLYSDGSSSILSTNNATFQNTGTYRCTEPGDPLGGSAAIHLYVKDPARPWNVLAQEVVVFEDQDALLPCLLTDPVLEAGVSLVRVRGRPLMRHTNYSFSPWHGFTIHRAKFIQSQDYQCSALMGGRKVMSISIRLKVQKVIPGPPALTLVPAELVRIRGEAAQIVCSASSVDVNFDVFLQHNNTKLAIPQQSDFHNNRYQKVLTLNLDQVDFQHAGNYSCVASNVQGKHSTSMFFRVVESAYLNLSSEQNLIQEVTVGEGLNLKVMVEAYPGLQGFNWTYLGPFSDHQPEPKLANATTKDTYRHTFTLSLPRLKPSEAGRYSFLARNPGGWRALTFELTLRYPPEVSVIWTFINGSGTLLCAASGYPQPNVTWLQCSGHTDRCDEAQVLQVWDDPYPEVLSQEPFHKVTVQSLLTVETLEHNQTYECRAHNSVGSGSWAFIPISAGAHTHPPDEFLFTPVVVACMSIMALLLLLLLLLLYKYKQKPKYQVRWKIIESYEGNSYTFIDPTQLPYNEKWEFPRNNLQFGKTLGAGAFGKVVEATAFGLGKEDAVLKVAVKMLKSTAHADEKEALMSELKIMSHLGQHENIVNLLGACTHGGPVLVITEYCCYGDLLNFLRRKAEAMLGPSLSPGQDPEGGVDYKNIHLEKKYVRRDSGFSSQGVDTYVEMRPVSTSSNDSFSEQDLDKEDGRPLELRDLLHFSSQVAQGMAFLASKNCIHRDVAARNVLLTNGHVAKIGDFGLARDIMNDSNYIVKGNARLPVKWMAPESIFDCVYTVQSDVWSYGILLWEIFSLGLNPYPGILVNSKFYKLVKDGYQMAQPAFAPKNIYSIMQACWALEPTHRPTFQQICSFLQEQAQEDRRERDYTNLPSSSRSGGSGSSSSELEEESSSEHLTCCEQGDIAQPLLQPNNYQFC
T4 sequence (P16234 24-1089): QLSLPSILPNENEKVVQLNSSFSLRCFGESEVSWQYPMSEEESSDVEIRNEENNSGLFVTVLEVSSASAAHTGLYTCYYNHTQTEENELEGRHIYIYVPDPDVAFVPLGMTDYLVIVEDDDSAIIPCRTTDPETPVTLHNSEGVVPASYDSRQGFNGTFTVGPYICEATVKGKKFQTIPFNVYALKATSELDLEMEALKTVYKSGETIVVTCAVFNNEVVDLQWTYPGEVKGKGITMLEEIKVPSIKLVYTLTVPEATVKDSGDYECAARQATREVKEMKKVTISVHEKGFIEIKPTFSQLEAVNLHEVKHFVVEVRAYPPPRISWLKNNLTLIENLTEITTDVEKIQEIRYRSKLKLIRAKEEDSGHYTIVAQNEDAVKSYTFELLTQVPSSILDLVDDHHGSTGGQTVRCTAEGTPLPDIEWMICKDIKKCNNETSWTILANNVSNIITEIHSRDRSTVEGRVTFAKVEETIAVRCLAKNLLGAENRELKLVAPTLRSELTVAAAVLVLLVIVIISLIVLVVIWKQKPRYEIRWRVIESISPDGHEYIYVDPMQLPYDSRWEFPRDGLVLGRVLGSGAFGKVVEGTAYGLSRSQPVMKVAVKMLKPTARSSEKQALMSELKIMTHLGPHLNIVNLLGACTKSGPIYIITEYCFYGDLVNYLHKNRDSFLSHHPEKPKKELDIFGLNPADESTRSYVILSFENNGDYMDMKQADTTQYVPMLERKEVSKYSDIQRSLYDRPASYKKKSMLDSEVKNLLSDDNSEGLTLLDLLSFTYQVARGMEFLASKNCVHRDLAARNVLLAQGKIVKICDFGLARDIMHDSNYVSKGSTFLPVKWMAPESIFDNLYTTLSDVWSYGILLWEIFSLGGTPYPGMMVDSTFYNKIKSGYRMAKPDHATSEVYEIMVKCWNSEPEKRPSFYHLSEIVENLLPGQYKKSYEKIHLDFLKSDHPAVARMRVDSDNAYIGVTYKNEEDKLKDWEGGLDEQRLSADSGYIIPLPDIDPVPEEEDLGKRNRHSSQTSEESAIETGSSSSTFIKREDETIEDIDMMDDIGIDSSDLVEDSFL

SMILES | Solubility (μM) [1] | MDCK-BCRP: Efflux Ratio [2] | MDCK-BCRP: Papp A-B [2] | IC50 [3] | IC50 [4] | IC50 [5]
Cc1ccc(-c2noc(CC(=O)O)n2)cc1NC(=O)c1cnc2ccccn12 [Compound I-335] | * (a solubility greater than 50 μM) | 0.37 | 1.99 10^−6 cm/s | 500 to 5000 nM | 50 to 500 nM | 500 to 5000 nM
CNC(=O)N1CC(c2nc(-c3ccc(C)c(NC(=O)c4cnc5ccccn45)c3)no2)C1 [Compound I-282] | ** (a solubility greater than 10 μM and less than or equal to 50 μM) | 28.1 | 0.55 10^−6 cm/s | 5000 to 30000 nM | ≤ 50 nM | 5000 to 30000 nM
Cc1ccc(-c2noc(C3(C)CC(F)(F)CN3)n2)cc1NC(=O)c1cnc2ccccn12 (racemic) [Compound I-328] | *** (a solubility greater than 2 μM and less than or equal to 10 μM) | 4.55 | 6.06 10^−6 cm/s | 50 to 500 nM | ≤ 50 nM | 500 to 5000 nM
CCCNc1ccn2c(C(=O)Nc3cc(-c4noc([C@H]5C[C@@H]5F)n4)ccc3C)cnc2c1 [Compound I-304] | **** (a solubility less than or equal to 2 μM) | 3.43 | 5.05 10^−6 cm/s | ≤ 50 nM | ≤ 50 nM | ≤ 50 nM
Cc1cc(C)cc(Nc2ccc3ncc(C(=O)Nc4cc(-c5noc([C@H]6C[C@@H]6F)n5)ccc4C)n3c2)c1 [Compound I-299] | **** (a solubility less than or equal to 2 μM) | 13.7 | 0.01 10^−6 cm/s | ≤ 50 nM | ≤ 50 nM | 50 to 500 nM
Cc1ccc(-c2noc([C@H]3C[C@@H]3F)n2)cc1NC(=O)c1cnc2cc(OC(C)C)ccn12 [Compound I-88] | **** (a solubility less than or equal to 2 μM) | 0.89 | 29 10^−6 cm/s | ≤ 50 nM | ≤ 50 nM | 50 to 500 nM
Cc1ccc(-c2noc(CCO)n2)cc1NC(=O)c1cnc2ccccn12 [Compound I-306] | * (a solubility greater than 50 μM) | 23.2 | 1.46 10^−6 cm/s | 50 to 500 nM | ≤ 50 nM | 5000 to 30000 nM
COC(=O)N1CC(c2nc(-c3ccc(C(F)F)c(NC(=O)c4cnc5ccccn45)c3)no2)C1 [Compound I-225] | ** (a solubility greater than 10 μM and less than or equal to 50 μM) | 3.27 | 11.2 10^−6 cm/s | 50 to 500 nM | ≤ 50 nM | 5000 to 30000 nM
Cc1ccc(-c2noc(C3CCC3F)n2)cc1NC(=O)c1cnc2ccccn12 (racemic) [Compound I-376] | **** (a solubility less than or equal to 2 μM) | 1.02 | 6.24 10^−6 cm/s | ≤ 50 nM | ≤ 50 nM | 50 to 500 nM
COC(=O)N1CC(c2nc(-c3ccc(C)c(NC(=O)c4cnc5cc(O[C@@H](C)CO)ccn45)c3)no2)C1 (single isomer, unassigned) [Compound I-217] | ** (a solubility greater than 10 μM and less than or equal to 50 μM) | 28.1 | 0.86 10^−6 cm/s | ≤ 50 nM | ≤ 50 nM | 50 to 500 nM
Cc1ccc(-c2noc(CC(C)O)n2)cc1NC(=O)c1cnc2ccccn12 (racemic) [Compound I-363] | ** (a solubility greater than 10 μM and less than or equal to 50 μM) | 5.58 | 3.24 10^−6 cm/s | 50 to 500 nM | ≤ 50 nM | 500 to 5000 nM
COC(=O)N1CC(c2nc(-c3ccc(C)c(NC(=O)c4cnc5cc(OC[C@@H](C)O)ccn45)c3)no2)C1 [Compound I-263] | * (a solubility greater than 50 μM) | 45.4 | 0.56 10^−6 cm/s | ≤ 50 nM | ≤ 50 nM | 50 to 500 nM
Cc1nc(-c2ccc(C)c(NC(=O)c3cnc4ccccn34)c2)no1 [Compound I-360] | ** (a solubility greater than 10 μM and less than or equal to 50 μM) | 1.52 | 9.54 10^−6 cm/s | 500 to 5000 nM | ≤ 50 nM | 500 to 5000 nM
O=C(Nc1cc(-c2noc([C@H]3C[C@@H]3F)n2)ccc1Cl)c1cnc2ccccn12 [Compound I-341] | **** (a solubility less than or equal to 2 μM) | 0.84 | 10.1 10^−6 cm/s | ≤ 50 nM | ≤ 50 nM | 50 to 500 nM
O=C(Nc1cc(-c2noc([C@H]3C[C@@H]3F)n2)ccc1Br)c1cnc2ccccn12 [Compound I-340] | **** (a solubility less than or equal to 2 μM) | 0.28 | 80.4 10^−6 cm/s | ≤ 50 nM | ≤ 50 nM | 50 to 500 nM
